Assay results as given in patent publication US11053213B2, “Pharmaceutical compounds” (ALMAC DISCOVERY LIMITED, priority 2016, dated 2021).

Molecular target: USP19 (Homo sapiens (Human), UniProt O94966)
Test: USP19 activity assay (fluorescence polarisation, Ubiquitin-Lys-TAMRA substrate)
Assay type: biochemical
Conditions: full-length USP19 2.5 nM, 30 min pre-incubation, Ub substrate 500 nM; average of at least two duplicate experiments

Sequence of USP19 (O94966 whole entry): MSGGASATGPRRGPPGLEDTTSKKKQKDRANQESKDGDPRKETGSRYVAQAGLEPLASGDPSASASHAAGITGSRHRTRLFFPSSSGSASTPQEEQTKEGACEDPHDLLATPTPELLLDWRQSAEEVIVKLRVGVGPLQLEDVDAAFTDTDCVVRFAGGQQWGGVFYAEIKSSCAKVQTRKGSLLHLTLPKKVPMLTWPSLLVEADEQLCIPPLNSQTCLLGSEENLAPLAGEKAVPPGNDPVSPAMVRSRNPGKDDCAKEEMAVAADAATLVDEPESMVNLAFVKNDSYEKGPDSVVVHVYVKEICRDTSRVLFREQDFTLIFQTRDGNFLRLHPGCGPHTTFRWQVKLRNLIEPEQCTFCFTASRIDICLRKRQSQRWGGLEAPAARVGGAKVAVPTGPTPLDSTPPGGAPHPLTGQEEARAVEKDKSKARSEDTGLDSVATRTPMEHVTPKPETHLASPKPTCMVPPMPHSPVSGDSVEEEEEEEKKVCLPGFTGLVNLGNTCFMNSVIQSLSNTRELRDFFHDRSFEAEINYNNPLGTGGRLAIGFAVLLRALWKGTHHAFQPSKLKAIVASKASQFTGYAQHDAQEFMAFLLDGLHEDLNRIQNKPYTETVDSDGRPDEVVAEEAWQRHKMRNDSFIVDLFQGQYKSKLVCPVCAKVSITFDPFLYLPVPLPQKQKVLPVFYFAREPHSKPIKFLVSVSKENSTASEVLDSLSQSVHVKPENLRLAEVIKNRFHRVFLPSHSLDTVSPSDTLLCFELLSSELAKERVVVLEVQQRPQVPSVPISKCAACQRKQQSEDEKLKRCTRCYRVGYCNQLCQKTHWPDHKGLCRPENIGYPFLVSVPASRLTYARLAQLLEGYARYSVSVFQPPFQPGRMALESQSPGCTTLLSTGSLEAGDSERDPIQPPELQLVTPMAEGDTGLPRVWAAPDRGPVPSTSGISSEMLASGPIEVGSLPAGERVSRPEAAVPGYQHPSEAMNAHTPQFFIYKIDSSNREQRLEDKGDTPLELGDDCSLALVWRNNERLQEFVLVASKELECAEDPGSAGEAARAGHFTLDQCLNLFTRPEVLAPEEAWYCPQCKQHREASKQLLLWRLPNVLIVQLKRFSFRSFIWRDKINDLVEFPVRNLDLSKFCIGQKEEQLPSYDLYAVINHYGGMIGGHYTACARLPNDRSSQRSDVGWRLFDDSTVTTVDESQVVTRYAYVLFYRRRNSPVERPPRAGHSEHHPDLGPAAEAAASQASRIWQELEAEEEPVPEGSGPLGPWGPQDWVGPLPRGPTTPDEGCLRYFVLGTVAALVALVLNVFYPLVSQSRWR

Question: `C[C@H](CC1CCCCC1)C(=O)N1CC[C@@](O)(Cn2cc(C(=O)N3CCNCC3)c(-c3ccccc3)cc2=O)C(C)(C)C1` [Example 124, 1-(((S)-1-((R)-3-Cyclohexyl-2-methylpropanoyl)-4-hydroxy-3,3-dimethylpiperidin-4-yl)methyl)-4-phenyl-5-(piperazine-1-carbonyl)pyridin-2(1H)-one] was tested. Which IC50 did it give?
Answer: < 0.5 µM

Question: With `C[C@H](CC(=O)N1CCC(O)(Cn2cc(-c3ccnn3C)c(-c3ccccc3)cc2=O)CC1)c1ccccc1` [Example 9, (R)-1-((4-Hydroxy-1-(3-phenylbutanoyl)piperidin-4-yl)methyl)-5-(1-methyl-1H-pyrazol-5-yl)-4-phenylpyridin-2(1H)-one] as the compound, how does the IC50 read?
Answer: 5 to 50 µM

Question: For `C[C@H](CC1CCCCC1)C(=O)N1CC[C@](O)(Cn2cc(C(=O)N(C)C)c(-c3ccccc3)cc2=O)C(C)(C)C1` [Example 122, 1-(((R)-1-((R)-3-Cyclohexyl-2-methylpropanoyl)-4-hydroxy-3,3-dimethylpiperidin-4-yl)methyl)-N,N-dimethyl-6-oxo-4-phenyl-1,6-dihydropyridine-3-carboxamide], which IC50 is on record?
Answer: 50 to 250 µM

Question: With `C[C@H](CC1CCCCC1)C(=O)N1CCC(O)(Cn2cc(C(=O)N(C)C)c(-c3ccsc3)cc2=O)C2(CCCC2)C1` (stereo partly drawn) [Example 155, 1-((7-((R)-3-Cyclohexyl-2-methylpropanoyl)-10-hydroxy-7-azaspiro[4.5]decan-10-yl)methyl)-N,N-dimethyl-6-oxo-4-(thiophen-3-yl)-1,6-dihydropyridine-3-carboxamide] as the compound, how does the IC50 read?
Answer: < 0.5 µM

Question: With `CC1(C)CN(C(=O)CCC2CC2)CCC1(O)Cn1cnc(-c2ccccc2F)cc1=O` (racemic) [Example 83, (R,S)-3-((1-(3-Cyclopropylpropanoyl)-4-hydroxy-3,3-dimethylpiperidin-4-yl)methyl)-6-(2-fluorophenyl)pyrimidin-4(3H)-one] as the compound, how does the IC50 read?
Answer: 50 to 250 µM

Question: How did the IC50 turn out when `CN(C)C(=O)c1cn(CC2(O)CCN(C(=O)c3cc[nH]n3)CC23CCCC3)c(=O)cc1-c1ccccc1` (stereo not shown) [Example 187, 1-((10-Hydroxy-7-(1H-pyrazole-3-carbonyl)-7-azaspiro[4.5]decan-10-yl)methyl)-N,N-dimethyl-6-oxo-4-phenyl-1,6-dihydropyridine-3-carboxamide] was run?
Answer: 50 to 250 µM

Question: With `CN(C)C(=O)c1cn(CC2(O)CCN(C(=O)c3ncoc3-c3ccccc3)CC23CCCC3)c(=O)cc1-c1ccccc1` (stereo not shown) [Example 192, 1-((10-Hydroxy-7-(5-phenyloxazole-4-carbonyl)-7-azaspiro[4.5]decan-10-yl)methyl)-N,N-dimethyl-6-oxo-4-phenyl-1,6-dihydropyridine-3-carboxamide] as the compound, how does the IC50 read?
Answer: 5 to 50 µM

Question: `CN(C)C(=O)c1cn(C[C@@]2(O)CCN(C(=O)[C@H](CCO)CC3CCCCC3)CC2(C)C)c(=O)cc1-c1ccccc1` [Example 165, 1-(((R)-1-((S)-2-(Cyclohexylmethyl)-4-hydroxybutanoyl)-4-hydroxy-3,3-dimethylpiperidin-4-yl)methyl)-N,N-dimethyl-6-oxo-4-phenyl-1,6-dihydropyridine-3-carboxamide] was tested. Which IC50 did it give?
Answer: 5 to 50 µM

Question: With `CCOC(=O)c1cn(C[C@]2(O)CCN(C(=O)[C@H](C)CC3CCCCC3)CC23CCCC3)c(=O)cc1-c1ccccc1` [Example 252, Ethyl 1-(((S)-7-((R)-3-cyclohexyl-2-methylpropanoyl)-10-hydroxy-7-azaspiro[4.5]decan-10-yl)methyl)-6-oxo-4-phenyl-1,6-dihydropyridine-3-carboxylate] as the compound, how does the IC50 read?
Answer: < 0.5 µM

Question: How did the IC50 turn out when `CN(C)C(=O)c1cn(CC2(O)CCN(C(=O)c3c[nH]c4ccccc34)CC23CCCC3)c(=O)cc1-c1ccccc1` (stereo not shown) [Example 190, 1-((10-Hydroxy-7-(1H-indole-3-carbonyl)-7-azaspiro[4.5]decan-10-yl)methyl)-N,N-dimethyl-6-oxo-4-phenyl-1,6-dihydropyridine-3-carboxamide] was run?
Answer: 50 to 250 µM

Question: Which IC50 does the source give for `Cc1ccc(-c2cc(=O)n(CC3(O)CCN(C(=O)C[C@@H](C)c4ccccc4)CC3)cc2C(=O)N(C)C(C)C)cc1` [Example 96, (R)-1-((4-Hydroxy-1-(3-phenylbutanoyl)piperidin-4-yl)methyl)-N-isopropyl-N-methyl-6-oxo-4-(p-tolyl)-1,6-dihydropyridine-3-carboxamide] here?
Answer: 5 to 50 µM

Question: How did the IC50 turn out when `CN(C)C(=O)c1cn(CC2(O)CCN(C(=O)c3nc(C(F)(F)F)cs3)CC23CCCC3)c(=O)cc1-c1ccccc1` (stereo not shown) [Example 245, 1-((10-Hydroxy-7-(4-(trifluoromethyl)thiazole-2-carbonyl)-7-azaspiro[4.5]decan-10-yl)methyl)-N,N-dimethyl-6-oxo-4-phenyl-1,6-dihydropyridine-3-carboxamide] was run?
Answer: 5 to 50 µM

Question: How did the IC50 turn out when `C[C@H](CC1CCCCC1)C(=O)N1CC[C@@](O)(Cn2cc(C(=O)N3CCNCC3)c(-c3ccccc3F)cc2=O)C(C)(C)C1` [Example 206, 1-(((S)-1-((R)-3-Cyclohexyl-2-methylpropanoyl)-4-hydroxy-3,3-dimethylpiperidin-4-yl)methyl)-4-(2-fluorophenyl)-5-(piperazine-1-carbonyl)pyridin-2(1H)-one] was run?
Answer: < 0.5 µM

Question: For `C[C@H](CC1CCCCC1)C(=O)N1CCC(O)(Cn2cnc(-c3cccc(CO)c3)cc2=O)C(C)(C)C1` (stereo partly drawn) [Example 138, 3-((1-((R)-3-Cyclohexyl-2-methylpropanoyl)-4-hydroxy-3,3-dimethylpiperidin-4-yl)methyl)-6-(3-(hydroxymethyl)phenyl)pyrimidin-4(3H)-one], which IC50 is on record?
Answer: < 0.5 µM

Question: For `C[C@H](CC(=O)N1CCC(O)(Cn2cnc(-c3cccc4ccccc34)cc2=O)CC1)c1ccccc1` [Example 20, (R)-3-((4-Hydroxy-1-(3-phenylbutanoyl)piperidin-4-yl)methyl)-6-(naphthalen-1-yl)pyrimidin-4(3H)-one], which IC50 is on record?
Answer: 5 to 50 µM

Question: For `C[C@H](CC(=O)N1CCC(O)(Cn2nc(-c3ccccc3)c(-c3ccccc3)cc2=O)CC1)c1ccccc1` [Example 19, (R)-2-((4-Hydroxy-1-(3-phenylbutanoyl)piperidin-4-yl)methyl)-5,6-diphenylpyridazin-3(2H)-one], which IC50 is on record?
Answer: 5 to 50 µM

Question: With `CC(CC1CCCCCC1)C(=O)N1CCC(O)(Cn2cnc(-c3ccccc3F)cc2=O)CC1` (racemic) [Example 58, (R,S)-3-((1-(3-Cycloheptyl-2-methylpropanoyl)-4-hydroxypiperidin-4-yl)methyl)-6-(2-fluorophenyl)pyrimidin-4(3H)-one] as the compound, how does the IC50 read?
Answer: 5 to 50 µM

Question: With `C[C@H](CC(=O)N1CCC(O)(Cn2cc(-c3cccc(CN)c3)c(-c3ccccc3)cc2=O)CC1)c1ccccc1` [Example 100, (R)-5-(3-(Aminomethyl)phenyl)-1-((4-hydroxy-1-(3-phenylbutanoyl)piperidin-4-yl)methyl)-4-phenylpyridin-2(1H)-one] as the compound, how does the IC50 read?
Answer: 5 to 50 µM

Question: Which IC50 does the source give for `C[C@H](CC(=O)N1CCC(O)(Cn2cnc(-c3ccccc3CO)cc2=O)CC1)c1ccccc1` [Example 74, (R)-3-((4-Hydroxy-1-(3-phenylbutanoyl)piperidin-4-yl)methyl)-6-(2-(hydroxymethyl)phenyl)pyrimidin-4(3H)-one] here?
Answer: 50 to 250 µM

Question: With `C[C@H](CC1CCC1)C(=O)N1CC[C@@](O)(Cn2cc(C(=O)N(C)C)c(-c3ccccc3)cc2=O)C2(CCCC2)C1` [Example 214, 1-(((S)-7-((R)-3-Cyclobutyl-2-methylpropanoyl)-10-hydroxy-7-azaspiro[4.5]decan-10-yl)methyl)-N,N-dimethyl-6-oxo-4-phenyl-1,6-dihydropyridine-3-carboxamide] as the compound, how does the IC50 read?
Answer: < 0.5 µM

Question: `CC(C)N(C)C(=O)c1cn(C[C@]2(O)CCN(C(=O)[C@H](C)CC3CCCCC3)CC2(C)C)c(=O)cc1-c1ccccc1` [Example 120, 1-(((S)-1-((R)-3-Cyclohexyl-2-methylpropanoyl)-4-hydroxy-3,3-dimethylpiperidin-4-yl)methyl)-N-isopropyl-N-methyl-6-oxo-4-phenyl-1,6-dihydropyridine-3-carboxamide] was tested. Which IC50 did it give?
Answer: < 0.5 µM

System: panel of DUBs (24 USPs and 19 other DUBs)
Test: Selectivity profile against a panel of DUBs (Ub-Rh110 substrate, Ubiquigent)
Assay type: biochemical
Conditions: fixed concentration of 100 μM
Method: FIG. 1 Overall selectivity profile of Example 124 against a panel of DUBs. Included in this screen were 24 USPs and 19 other DUBs (as indicated). Example 124 was screened at a fixed concentration of 100 μM using the Ub-Rh110 substrate (Ubiquigent). Residual activity is shown on the y-axis normalised to the no compound (DMSO) control.

Question: With `C[C@H](CC1CCCCC1)C(=O)N1CC[C@@](O)(Cn2cc(C(=O)N3CCNCC3)c(-c3ccccc3)cc2=O)C(C)(C)C1` [Example 124, 1-(((S)-1-((R)-3-Cyclohexyl-2-methylpropanoyl)-4-hydroxy-3,3-dimethylpiperidin-4-yl)methyl)-4-phenyl-5-(piperazine-1-carbonyl)pyridin-2(1H)-one] as the compound, how does the “Overall selectivity profile (residual activity normalised to DMSO control)” value read?
Answer: selectivity is demonstrated
